Measurements from patent US9981923B2, “1,2,3 Triazole antifungal agents and preparation thereof” (COUNCIL OF SCIENTIFIC & INDUSTRIAL RESEARCH, priority 2014, dated 2018).
Values after ≈ are worked out from the molar mass of the structure shown. Like-named read-outs stand apart in the source and are kept apart here.

Tests used:
Assay in all cases: Antifungal susceptibility by microbroth dilution (CLSI)
Assay type in all cases: cell-based
[1] = system: Aspergillus fumigatus MCC 1046
Description: (§1) The synthesized compounds were evaluated for antifungal susceptibility by microbroth dilution method according to the recommendations of the Clinical Laboratory Standards Institute (CLSI 2008). Briefly, appropriate amount of compounds were dissolved in dimethyl sulfoxide to get 100× final strength. The stock was then diluted 1:50 in RPMI/YPG medium and 200 μl from this was added to the first row of a 96-well microtitre plate. The compounds were serially diluted two fold in successive wells to get a range of 1-128 μg/ml. Fungal yeast cells (˜2×10^3 cfu/mL), freshly grown in YPG broth in logarithmic phase, were suspended in the medium and inoculated (100 μl) in the wells of the plate. For filamentous fungi, 2×10^4 spores/mL were added. The microtitre plate was incubated for 48 h, and the absorbance was measured at 600 nm by using microtitre plate reader to assess cell growth.

[2] = system: Candida glabrata NCYC 388
Description: as §1

[3] = system: Aspergillus niger ATCC 10578
Description: as §1

[4] = system: Cryptococcus neoformans ATCC 34664
Description: as §1

[5] = system: Candida albicans ATCC 24433
Description: as §1

[6] = system: Candida albicans ATCC 10231
Description: as §1

[7] = system: C. tropicalis ATCC 750; settings: Candida tropicalis, ATCC750; Table 2
Description: as §1

[8] = Table 1, 48 h, >90% inhibition of growth
[9] = Table 1, 48 h, >90% inhibition of growth, range 1-128 μg/ml
[10] = Aspergillus fumigatus, MCC1046, Table 2, read-out: MIC values
[11] = Nakaseomyces glabratus, NCYC388, Table 2, read-out: MIC values
[12] = Candida albicans, ATCC10231, Table 2, read-out: MIC values
[13] = Aspergillus niger, ATCC10578, Table 2, read-out: MIC values
[14] = Cryptococcus neoformans, ATCC34664, Table 2, read-out: MIC values
[15] = Candida albicans, ATCC24433, Table 2, read-out: MIC values

Compound	MIC [1, 10] [µg/mL]	MIC [2, 11] [µg/mL]	MIC [6, 12] [µg/mL]	MIC [7] [µg/mL]	MIC [3, 13] [µg/mL]	MIC [4, 14] [µg/mL]	MIC [5, 15] [µg/mL]	MIC [1, 8] [µg/mL]	MIC [2, 8] [µg/mL]	MIC [3, 8] [µg/mL]	MIC [4, 8] [µg/mL]	MIC [5, 9] [µg/mL]	MIC [6, 8] [µg/mL]
CCC(O)(c1ccccc1)c1cn(-c2cc(Cl)ccc2O)nn1 (stereo not shown) [Compound 2da]	–	–	–	–	–	–	–	128 (≈ 388 µM)	128 (≈ 388 µM)	64 (≈ 194 µM)	>128	128 (≈ 388 µM)	–
CCC(O)(c1ccccc1)c1cn(-c2ccc(Cl)cc2O)nn1 (stereo not shown) [Compound 2db]	–	–	–	–	–	–	–	128 (≈ 388 µM)	64 (≈ 194 µM)	128 (≈ 388 µM)	128 (≈ 388 µM)	>128	128 (≈ 388 µM)
CCCCC(O)(Cc1cn(-c2ccc(Cl)cc2O)nn1)c1ccccc1 (stereo not shown) [Compound 2hb]	–	–	–	–	–	–	–	>128	64 (≈ 172 µM)	>128	32 (≈ 86.1 µM)	64 (≈ 172 µM)	>128
CC(O)(Cc1cn(-c2cc(Cl)ccc2O)nn1)c1ccc(F)cc1F (stereo not shown) [Compound 3aa, 4-Chloro-2-(4-(2-(2,4-difluorophenyl)-2-hydroxypropyl)-1H-1,2,3-triazol-1-yl)phenol]	> 256	32 (≈ 87.5 µM)	32 (≈ 87.5 µM)	128 (≈ 350 µM)	128 (≈ 350 µM)	64 (≈ 175 µM)	32 (≈ 87.5 µM)	–	–	–	–	–	–
CC(O)(Cc1cn(-c2ccc(Cl)cc2O)nn1)c1ccc(F)cc1F (stereo not shown) [Compound 3ab, 5-Chloro-2-(4-(2-(2,4-difluorophenyl)-2-hydroxypropyl)-1H-1,2,3-triazol-1-yl)phenol]	64 (≈ 175 µM)	32 (≈ 87.5 µM)	32 (≈ 87.5 µM)	64 (≈ 175 µM)	64 (≈ 175 µM)	32 (≈ 87.5 µM)	16 (≈ 43.7 µM)	–	–	–	–	–	–
CC(O)(Cc1cn(-c2ccc(F)cc2O)nn1)c1ccc(F)cc1F (stereo not shown) [Compound 3ac, 2-(4-(2-(2,4-Difluorophenyl)-2-hydroxypropyl)-1H-1,2,3-triazol-1-yl)-5-fluorophenol]	64 (≈ 183 µM)	–	–	128 (≈ 366 µM)	128 (≈ 366 µM)	128 (≈ 366 µM)	8 (≈ 22.9 µM)	–	–	–	–	–	–
CC(O)(Cc1cn(-c2ccccc2O)nn1)c1ccc(F)cc1F (stereo not shown) [Compound 3ad, 2-(4-(2-(2,4-Difluorophenyl)-2-hydroxypropyl)-1H-1,2,3-triazol-1-yl)phenol]	128 (≈ 386 µM)	–	–	256 (≈ 773 µM)	128 (≈ 386 µM)	128 (≈ 386 µM)	8 (≈ 24.1 µM)	–	–	–	–	–	–
CC(O)(Cc1cn(-c2cc(Cl)ccc2O)nn1)c1ccc(Cl)cc1Cl (stereo not shown) [Compound 3ba, 4-Chloro-2-(4-(2-(2,4-dichlorophenyl)-2-hydroxypropyl)-1H-1,2,3-triazol-1-yl)phenol]	> 256	–	–	> 256	> 256	> 256	32 (≈ 80.3 µM)	–	–	–	–	–	–
CC(O)(Cc1cn(-c2ccc(Cl)cc2O)nn1)c1ccc(Cl)cc1Cl (stereo not shown) [Compound 3bb, 5-Chloro-2-(4-(2-(2,4-dichlorophenyl)-2-hydroxypropyl)-1H-1,2,3-triazol-1-yl)phenol]	16 (≈ 40.1 µM)	16 (≈ 40.1 µM)	16 (≈ 40.1 µM)	32 (≈ 80.3 µM)	32 (≈ 80.3 µM)	8 (≈ 20.1 µM)	4 (≈ 10 µM)	–	–	–	–	–	–
CC(O)(Cc1cn(-c2ccc(F)cc2O)nn1)c1ccc(Cl)cc1Cl (stereo not shown) [Compound 3bc, 2-(4-(2-(2,4-Dichlorophenyl)-2-hydroxypropyl)-1H-1,2,3-triazol-1-yl)-5-fluorophenol]	64 (≈ 167 µM)	16 (≈ 41.9 µM)	8 (≈ 20.9 µM)	32 (≈ 83.7 µM)	64 (≈ 167 µM)	16 (≈ 41.9 µM)	16 (≈ 41.9 µM)	–	–	–	–	–	–
CC(O)(Cc1cn(-c2ccccc2O)nn1)c1ccc(Cl)cc1Cl (stereo not shown) [Compound 3bd, 2-(4-(2-(2,4-Dichlorophenyl)-2-hydroxypropyl)-1H-1,2,3-triazol-1-yl)phenol]	16 (≈ 43.9 µM)	–	–	64 (≈ 176 µM)	32 (≈ 87.9 µM)	32 (≈ 87.9 µM)	8 (≈ 22 µM)	–	–	–	–	–	–
Oc1cc(Cl)ccc1-n1cc(CC(O)c2ccc(C(F)(F)F)cc2F)nn1 (stereo not shown) [Compound 3cb, 5-Chloro-2-(4-(2-(2-fluoro-4-(trifluoromethyl)phenyl)-2-hydroxyethyl)-1H-1,2,3-triazol-1-yl)phenol]	> 256	–	–	> 256	> 256	> 256	16 (≈ 39.8 µM)	–	–	–	–	–	–
Oc1cc(F)ccc1-n1cc(CC(O)c2ccc(C(F)(F)F)cc2F)nn1 (stereo not shown) [Compound 3cc, 5-Fluoro-2-(4-(2-(2-fluoro-4-(trifluoromethyl)phenyl)-2-hydroxyethyl)-1H-1,2,3-triazol-1-yl)phenol]	> 256	–	–	> 256	> 256	> 256	128 (≈ 332 µM)	–	–	–	–	–	–
CC(O)(Cc1cn(-c2cc(Cl)ccc2O)nn1)c1ccc(F)cc1 (stereo not shown) [Compound 3da, 4-Chloro-2-(4-(2(4fluorophenyl)-2-hydroxypropyl)-1H-1,2,3-triazol-1-yl)phenol]	64 (≈ 184 µM)	64 (≈ 184 µM)	32 (≈ 92 µM)	128 (≈ 368 µM)	128 (≈ 368 µM)	64 (≈ 184 µM)	32 (≈ 92 µM)	–	–	–	–	–	–
CC(O)(Cc1cn(-c2ccc(Cl)cc2O)nn1)c1ccc(F)cc1 (stereo not shown) [Compound 3db, 5-Chloro-2-(4-(2-(4-fluorophenyl)-2-hydroxypropyl)-1H-1,2,3-triazol-1-yl)phenol]	32 (≈ 92 µM)	–	–	128 (≈ 368 µM)	64 (≈ 184 µM)	128 (≈ 368 µM)	16 (≈ 46 µM)	–	–	–	–	–	–
CC(O)(Cc1cn(-c2ccc(F)cc2O)nn1)c1ccc(F)cc1 (stereo not shown) [Compound 3dc, 5-Fluoro-2-(4-(2-(4-fluorophenyl)-2-hydroxypropyl)-1H-1,2,3-triazol-1-yl)phenol]	128 (≈ 386 µM)	–	–	> 256	256 (≈ 773 µM)	256 (≈ 773 µM)	64 (≈ 193 µM)	–	–	–	–	–	–
CC(O)(Cc1cn(-c2cc(Cl)ccc2O)nn1)c1ccc(Cl)cc1 (stereo not shown) [Compound 3ea, 4-Chloro-2-(4-(2-(4-chlorophenyl)-2-hydroxypropyl)-1H-1,2,3-triazol-1-yl)phenol]	64 (≈ 176 µM)	16 (≈ 43.9 µM)	8 (≈ 22 µM)	64 (≈ 176 µM)	64 (≈ 176 µM)	32 (≈ 87.9 µM)	16 (≈ 43.9 µM)	–	–	–	–	–	–

More lines, main results first:

MIC [1, 10] [µg/mL]	MIC [2, 11] [µg/mL]	MIC [6, 12] [µg/mL]	MIC [7] [µg/mL]	MIC [3, 13] [µg/mL]	MIC [4, 14] [µg/mL]	MIC [5, 15] [µg/mL]	Compound	MIC [1, 8] [µg/mL]	MIC [2, 8] [µg/mL]	MIC [3, 8] [µg/mL]	MIC [4, 8] [µg/mL]	MIC [5, 9] [µg/mL]	MIC [6, 8] [µg/mL]
256 (≈ 817 µM)	–	–	> 256	256 (≈ 817 µM)	256 (≈ 817 µM)	64 (≈ 204 µM)	CC(O)(Cc1cn(-c2ccccc2O)nn1)c1ccc(F)cc1 (stereo not shown) [Compound 3dd, 2-(4-(2-(4-Fluorophenyl)-2-hydroxypropyl)-1H-1,2,3-triazol-1-yl)phenol]	–	–	–	–	–	–
64 (≈ 176 µM)	32 (≈ 87.9 µM)	16 (≈ 43.9 µM)	64 (≈ 176 µM)	64 (≈ 176 µM)	32 (≈ 87.9 µM)	32 (≈ 87.9 µM)	CC(O)(Cc1cn(-c2ccc(Cl)cc2O)nn1)c1ccc(Cl)cc1 (stereo not shown) [Compound 3eb, 5-Chloro-2-(4-(2-(4-chlorophenyl)-2-hydroxypropyl)-1H-1,2,3-triazol-1-yl)phenol]	–	–	–	–	–	–
64 (≈ 184 µM)	–	–	128 (≈ 368 µM)	128 (≈ 368 µM)	128 (≈ 368 µM)	8 (≈ 23 µM)	CC(O)(Cc1cn(-c2ccc(F)cc2O)nn1)c1ccc(Cl)cc1 (stereo not shown) [Compound 3ec, 2-(4-(2-(4-Chlorophenyl)-2-hydroxypropyl)-1H-1,2,3-triazol-1-yl)-5-fluorophenol]	–	–	–	–	–	–
64 (≈ 194 µM)	–	–	256 (≈ 776 µM)	128 (≈ 388 µM)	128 (≈ 388 µM)	8 (≈ 24.3 µM)	CC(O)(Cc1cn(-c2ccccc2O)nn1)c1ccc(Cl)cc1 (stereo not shown) [Compound 3ed, 2-(4-(2-(4-Chlorophenyl)-2-hydroxypropyl)-1H-1,2,3-triazol-1-yl)phenol]	–	–	–	–	–	–
16 (≈ 39.2 µM)	–	–	64 (≈ 157 µM)	32 (≈ 78.3 µM)	32 (≈ 78.3 µM)	4 (≈ 9.79 µM)	CC(O)(Cc1cn(-c2cc(Cl)ccc2O)nn1)c1ccc(Br)cc1 (stereo not shown) [Compound 3fa, 2-(4-(2-(4-Bromophenyl)-2-hydroxypropyl)-1H-1,2,3-triazol-1-yl)-4-chlorophenol]	–	–	–	–	–	–
64 (≈ 157 µM)	32 (≈ 78.3 µM)	16 (≈ 39.2 µM)	64 (≈ 157 µM)	64 (≈ 157 µM)	32 (≈ 78.3 µM)	16 (≈ 39.2 µM)	CC(O)(Cc1cn(-c2ccc(Cl)cc2O)nn1)c1ccc(Br)cc1 (stereo not shown) [Compound 3fb, 2-(4-(2-(4-Bromophenyl)-2-hydroxypropyl)-1H-1,2,3-triazol-1-yl)-5-chlorophenol]	–	–	–	–	–	–
64 (≈ 163 µM)	64 (≈ 163 µM)	16 (≈ 40.8 µM)	128 (≈ 326 µM)	128 (≈ 326 µM)	64 (≈ 163 µM)	8 (≈ 20.4 µM)	CC(O)(Cc1cn(-c2ccc(F)cc2O)nn1)c1ccc(Br)cc1 (stereo not shown) [Compound 3fc, 2-(4-(2-(4-Bromophenyl)-2-hydroxypropyl)-1H-1,2,3-triazol-1-yl)-5-fluorophenol]	–	–	–	–	–	–
128 (≈ 342 µM)	–	–	256 (≈ 684 µM)	128 (≈ 342 µM)	128 (≈ 342 µM)	32 (≈ 85.5 µM)	CC(O)(Cc1cn(-c2ccccc2O)nn1)c1ccc(Br)cc1 (stereo not shown) [Compound 3fd, 2-(4-(2-(4-Bromophenyl)-2-hydroxypropyl)-1H-1,2,3-triazol-1-yl)phenol]	–	–	–	–	–	–
